# Laboratory results reported in patent publication US20250376468A1, “PYRAZOLO[1,5-a]PYRIDINE DERIVATIVES FOR TREATING TRPM3-MEDIATED DISORDERS” (Katholieke Universiteit Leuven, priority 2022, published 2025).
# Molecular target: T1, mouse TRPM3α2 (mTRPM3) ion channel (Mus musculus, UniProt J9SQF3)
# T1 construct: expressed in transfected cells; host or cells: flip-in HEK293 (Flp-In HEK293) overexpressing mTRPM3alpha2
# Experiment: TRPM3 ion channel driven Ca2+ uptake, Fluo-4 AM assay, stimulated with pregnenolone sulfate (50 μM)
# Assay type: cell-based
# Details: TRPM3 overexpressing flip-in HEK293 cells, PS 50 μM, 2.4 mM Ca2+
# Procedure: In order to monitor the inhibition of the mouse TRPM3α2 (mTRPM3) ion channel by the compounds of the invention, a cellular system making use of an mTRPM3alpha2 or hTRPM3 overexpressing cell line (flip-in HEK293) was used. The TRPM3 channel was stimulated/opened with Pregnenolone sulfate (PS) (50 μM) which results in Ca^2+ influx.
# For mTRPM3, the intracellular Ca^2+ was measured with a Calcium responsive dye, Fluor-4 AM ester (Invitrogen). Cells were cultured until a confluence of 80-90%, washed with Versene (Invitrogen) and detached from the surface by a short incubation with 0.05% Trypsin (Invitrogen). The […] was stopped by the addition of complete cell culture medium (DMEM, glutamax, 10% FCS, NEAA, Pen-Strep). Cells were collected and resuspended in Krebs buffer without Calcium at RT.
# Prior the cell seeding (±2000 cells/well into a black, 384 well plate (Greiner)) the diluted compound was added in the assay plate, together with the PS dissolved in Krebs buffer containing Calcium. […] Directly after cell addition the plates were read on an Envision fluorescence reader (Perkin Elmer) by an Excitation of 485 nm and emission at 535 nm.
# Channel inhibition was calculated compared to a non-PS stimulated control versus a condition stimulated with PS (50 μM) with vehicle. The ability of the compounds of the invention to inhibit this activity was determined as: Percentage inhibition=[1−((RFU determined for sample with test compound present−RFU determined for sample with positive control inhibitor) divided by (RFU determined in the presence of vehicle−RFU determined for sample with positive control inhibitor))]*100.
# The activities of the Example compounds cpd 001-091 tested are depicted in the table below. All tested compounds show an activity in the Fluo-4 AM assay. The activity ranges A, B and C refer to IC50 values in the Fluo-4 AM assay as follows: “A”: IC50<1 μM; “B”: 1 μM≤IC50≤20 μM and “C”: IC50>20 μM.
# T1 sequence (J9SQF3 1-1709 isoform J9SQF3-12): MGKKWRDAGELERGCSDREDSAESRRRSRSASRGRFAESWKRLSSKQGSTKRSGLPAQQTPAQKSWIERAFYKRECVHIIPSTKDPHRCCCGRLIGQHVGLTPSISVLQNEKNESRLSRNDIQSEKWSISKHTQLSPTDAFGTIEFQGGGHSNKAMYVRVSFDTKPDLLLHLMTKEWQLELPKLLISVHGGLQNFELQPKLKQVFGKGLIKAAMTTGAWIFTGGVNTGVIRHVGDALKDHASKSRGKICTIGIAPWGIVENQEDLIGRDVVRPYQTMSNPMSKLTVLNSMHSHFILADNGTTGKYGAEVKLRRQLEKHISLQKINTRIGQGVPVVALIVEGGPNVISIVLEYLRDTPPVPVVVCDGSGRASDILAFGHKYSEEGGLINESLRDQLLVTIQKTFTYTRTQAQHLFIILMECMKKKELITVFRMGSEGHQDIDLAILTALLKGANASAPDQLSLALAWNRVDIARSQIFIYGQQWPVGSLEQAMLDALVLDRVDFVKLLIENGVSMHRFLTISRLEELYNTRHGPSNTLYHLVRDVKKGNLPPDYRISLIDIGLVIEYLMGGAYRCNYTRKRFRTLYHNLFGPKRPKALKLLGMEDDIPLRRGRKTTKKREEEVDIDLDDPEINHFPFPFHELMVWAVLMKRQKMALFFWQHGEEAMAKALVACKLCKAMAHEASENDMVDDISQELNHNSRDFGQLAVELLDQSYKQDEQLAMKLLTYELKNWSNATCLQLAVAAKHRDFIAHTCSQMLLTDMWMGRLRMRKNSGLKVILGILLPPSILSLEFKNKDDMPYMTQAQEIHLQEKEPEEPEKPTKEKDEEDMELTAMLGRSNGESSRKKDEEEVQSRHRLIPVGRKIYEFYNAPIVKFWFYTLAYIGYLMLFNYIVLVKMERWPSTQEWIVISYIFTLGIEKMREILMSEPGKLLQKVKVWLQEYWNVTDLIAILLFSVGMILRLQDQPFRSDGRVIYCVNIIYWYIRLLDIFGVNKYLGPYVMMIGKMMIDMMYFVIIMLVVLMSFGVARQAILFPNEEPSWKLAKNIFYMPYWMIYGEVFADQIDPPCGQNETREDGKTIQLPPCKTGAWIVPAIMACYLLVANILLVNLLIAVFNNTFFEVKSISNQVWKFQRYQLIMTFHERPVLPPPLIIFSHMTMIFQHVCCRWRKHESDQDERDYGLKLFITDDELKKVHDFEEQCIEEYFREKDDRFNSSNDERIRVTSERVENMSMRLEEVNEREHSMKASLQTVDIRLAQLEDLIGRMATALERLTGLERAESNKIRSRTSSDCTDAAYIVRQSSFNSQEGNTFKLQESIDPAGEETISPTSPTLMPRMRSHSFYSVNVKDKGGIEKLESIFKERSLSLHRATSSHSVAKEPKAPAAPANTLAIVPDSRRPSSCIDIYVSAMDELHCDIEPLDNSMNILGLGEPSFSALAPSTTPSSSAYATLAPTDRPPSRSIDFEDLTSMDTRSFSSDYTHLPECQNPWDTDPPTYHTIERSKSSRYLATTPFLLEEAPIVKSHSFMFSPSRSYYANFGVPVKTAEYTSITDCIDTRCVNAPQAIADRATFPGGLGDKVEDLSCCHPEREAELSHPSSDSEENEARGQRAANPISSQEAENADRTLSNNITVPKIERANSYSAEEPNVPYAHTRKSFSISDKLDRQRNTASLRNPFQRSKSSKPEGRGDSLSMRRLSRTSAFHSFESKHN
row,SMILES,IC50 [µM]
1,"Cc1nn2ccc(OCc3ccccn3)cc2c1C(=O)NC(C)(CO)C(N)=O (single isomer, unassigned) [Cpd 089 - En1, 3-hydroxy-2-methyl-2-({2-methyl-5-[(pyridin-2-yl)methoxy]pyrazolo[1,5-a]pyridin-3-yl}formamido)propanamide]",> 20
2,Cc1nn2ccc(OCc3ccccn3)cc2c1C(=O)NC(CO)Cc1ncccn1 (centres unmarked) [Cpd 079 - En 1],> 20
3,"Cc1nn2ccc(OCc3ccccc3F)cc2c1C(=O)O [Cpd 035, 5-[(2-fluorophenyl)methoxy]-2-methylpyrazolo[1,5-a]pyridine-3-carboxylic acid]",> 20
4,"Cc1nn2ccc(OCc3ccccn3)cc2c1C(=O)NC1(CO)CC1(F)F (centres unmarked) [Cpd 071, N-[2,2-difluoro-1-(hydroxymethyl)cyclopropyl]-2-methyl-5-[(pyridin-2-yl)methoxy]pyrazolo[1,5-a]pyridine-3-carboxamide]",> 20
5,"Cc1nn2ccc(OCc3ccccn3)cc2c1C(=O)N[C@@]1(CO)C[C@H]1C(F)F (relative stereo) [Cpd 072 - En2, N-[cis-2-(difluoromethyl)-1-(hydroxymethyl)cyclopropyl]-2-methyl-5-[(pyridin-2-yl)methoxy]pyrazolo[1,5-a]pyridine-3-carboxamide]",> 20
6,"Cc1nn2ccc(OCC3CC3)cc2c1C(=O)O [Cpd 034, 5-(cyclopropylmethoxy)-2-methylpyrazolo[1,5-a]pyridine-3-carboxylic acid]",> 20
7,"Cc1nn2ccc(OCc3ccccn3)cc2c1C(=O)NC1CNCCC1(F)F (single isomer, unassigned) [Cpd 050 - En1, N-(4,4-difluoropiperidin-3-yl)-2-methyl-5-[(pyridin-2-yl)methoxy]pyrazolo[1,5-a]pyridine-3-carboxamide]",> 20
8,"Cc1nn2ccc(OCc3ccccn3)cc2c1C(=O)NC1(CO)COC(C)(C)OC1 [Cpd 057, N-[5-(hydroxymethyl)-2,2-dimethyl-1,3-dioxan-5-yl]-2-methyl-5-[(pyridin-2-yl)methoxy]pyrazolo[1,5-a]pyridine-3-carboxamide]",> 20
9,"Cc1nn2ccc(OCc3ccccn3)cc2c1C(=O)Nc1cc(C(F)(F)F)cnc1O [Cpd 056, N-[2-hydroxy-5-(trifluoromethyl)pyridin-3-yl]-2-methyl-5-[(pyridin-2-yl)methoxy]pyrazolo[1,5-a]pyridine-3-carboxamide]",> 20
10,"Cc1nn2ccc(OCc3ccccc3Cl)cc2c1C(=O)O [Cpd 036, 5-[(2-chlorophenyl)methoxy]-2-methylpyrazolo[1,5-a]pyridine-3-carboxylic acid]",> 20
11,Cc1nn2ccc(OCc3ccccn3)cc2c1C(=O)NC(CO)CC(N)=O (centres unmarked) [Cpd 076 - En2],> 20
12,"Cc1nn2ccc(OCc3ccccn3)cc2c1C(=O)NCc1cccc(OC(F)F)c1 [Cpd 048, N-{[3-(difluoromethoxy)phenyl]methyl}-2-methyl-5-[(pyridin-2-yl)methoxy]pyrazolo[1,5-a]pyridine-3-carboxamide]",> 20
13,"Cc1nn2ccc(OCc3ccccn3)cc2c1C(=O)NCCO [Cpd 043, N-(2-hydroxyethyl)-2-methyl-5-[(pyridin-2-yl)methoxy]pyrazolo[1,5-a]pyridine-3-carboxamide]",> 20
14,"Cc1nn2ccc(OCc3ccccc3F)cc2c1C(=O)NCC(F)F [Cpd 006, N-(2,2-difluoroethyl)-5-[(2-fluorophenyl)methoxy]-2-methylpyrazolo[1,5-a]pyridine-3-carboxamide]",1 to 20
15,"Cc1nn2ccc(OCc3ccccc3)cc2c1C(=O)O [Cpd 033, 5-(benzyloxy)-2-methylpyrazolo[1,5-a]pyridine-3-carboxylic acid]",> 20
16,"Cc1nn2ccc(OCc3ccccn3)cc2c1C(=O)N[C@@]1(CO)C[C@H]1C(F)F (relative stereo) [Cpd 072 - En1, N-[cis-2-(difluoromethyl)-1-(hydroxymethyl)cyclopropyl]-2-methyl-5-[(pyridin-2-yl)methoxy]pyrazolo[1,5-a]pyridine-3-carboxamide]",1 to 20
17,Cc1nn2ccc(OCc3ccccn3)cc2c1C(=O)NC(CO)C1CCOCC1 (centres unmarked) [Cpd 077 - En2],> 20
18,"Cc1nn2ccc(OCc3ccccn3)cc2c1C(=O)NC1(CO)CC(F)(F)C1 [Cpd 055, N-[3,3-difluoro-1-(hydroxymethyl)cyclobutyl]-2-methyl-5-[(pyridin-2-yl)methoxy]pyrazolo[1,5-a]pyridine-3-carboxamide]",1 to 20
19,"Cc1nn2ccc(OCc3ccccc3F)cc2c1C(=O)NCCNS(C)(=O)=O [Cpd 005, 5-[(2-fluorophenyl)methoxy]-N-(2-methanesulfonamidoethyl)-2-methylpyrazolo[1,5-a]pyridine-3-carboxamide]",1 to 20
20,"Cc1nn2ccc(OCc3ccccn3)cc2c1C(=O)NC1CNCC(F)(F)C1 (single isomer, unassigned) [Cpd 052 - En2, N-(5,5-difluoropiperidin-3-yl)-2-methyl-5-[(pyridin-2-yl)methoxy]pyrazolo[1,5-a]pyridine-3-carboxamide]",> 20
21,"Cc1nn2ccc(OCc3ccccn3)cc2c1C(=O)NCc1c(F)cccc1C(F)(F)F [Cpd 047, N-{[2-fluoro-6-(trifluoromethyl)phenyl]methyl}-2-methyl-5-[(pyridin-2-yl)methoxy]pyrazolo[1,5-a]pyridine-3-carboxamide]",1 to 20

# The next lines start with the values.
row,IC50 [µM],SMILES
1,< 1,"Cc1nn2ccc(OCc3ccccn3)cc2c1C(=O)NC(C)(CO)C(N)=O (single isomer, unassigned) [Cpd 089 - En2, 3-hydroxy-2-methyl-2-({2-methyl-5-[(pyridin-2-yl)methoxy]pyrazolo[1,5-a]pyridin-3-yl}formamido)propanamide]"
2,1 to 20,"Cc1nn2ccc(OCc3ccccn3)cc2c1C(=O)NCc1ncc[nH]1 [Cpd 044, N-[(1H-imidazol-2-yl)methyl]-2-methyl-5-[(pyridin-2-yl)methoxy]pyrazolo[1,5-a]pyridine-3-carboxamide]"
3,1 to 20,"Cc1nn2ccc(OCc3ccccc3F)cc2c1C(=O)N(C)C(C)(CO)C(N)=O (single isomer, unassigned) [Cpd 024 - En1, 2-(1-{5-[(2-fluorophenyl)methoxy]-2-methylpyrazolo[1,5-a]pyridin-3-yl}-N-methylformamido)-3-hydroxy-2-methylpropanamide]"
4,1 to 20,"Cc1ncsc1COc1ccn2nc(C)c(C(=O)N[C@@H](CO)C(N)=O)c2c1 [Cpd 010, (2S)-3-hydroxy-2-({2-methyl-5-[(4-methyl-1,3-thiazol-5-yl)methoxy]pyrazolo[1,5-a]pyridin-3-yl}formamido)propanamide]"
5,1 to 20,"Cc1nn2ccc(OCc3ccccc3F)cc2c1C(=O)NC(C)(CO)CO [Cpd 002, N-(1,3-dihydroxy-2-methylpropan-2-yl)-5-[(2-fluorophenyl)methoxy]-2-methylpyrazolo[1,5-a]pyridine-3-carboxamide]"
6,< 1,"Cc1nn2ccc(OCc3ccccc3Cl)cc2c1C(=O)NC(C)(CO)C(N)=O (single isomer, unassigned) [Cpd 019 - En1, 2-({5-[(2-chlorophenyl)methoxy]-2-methylpyrazolo[1,5-a]pyridin-3-yl}formamido)-3-hydroxy-2-methylpropanamide]"
7,1 to 20,"Cc1nn2ccc(OCc3ccccc3Cl)cc2c1C(=O)NC(C)(C)C(N)=O [Cpd 013, 2-({5-[(2-chlorophenyl)methoxy]-2-methylpyrazolo[1,5-a]pyridin-3-yl}formamido)-2-methylpropanamide]"
8,1 to 20,"Cc1nn2ccc(OCc3ccccn3)cc2c1C(=O)NC(C)(CO)CC(F)F (single isomer, unassigned) [Cpd 038 - En1, N-(4,4-difluoro-1-hydroxy-2-methylbutan-2-yl)-2-methyl-5-[(pyridin-2-yl)methoxy]pyrazolo[1,5-a]pyridine-3-carboxamide]"
9,1 to 20,"Cc1nn2ccc(OCc3ccccn3)cc2c1C(=O)NC1CNCC(F)(F)C1 (single isomer, unassigned) [Cpd 052 - En1, N-(5,5-difluoropiperidin-3-yl)-2-methyl-5-[(pyridin-2-yl)methoxy]pyrazolo[1,5-a]pyridine-3-carboxamide]"
10,< 1,"CCC(CO)(NC(=O)c1c(C)nn2ccc(OCc3ccccc3F)cc12)C(N)=O (centres unmarked) [Cpd 001, 2-({5-[(2-fluorophenyl)methoxy]-2-methylpyrazolo[1,5-a]pyridin-3-yl}formamido)-2-(hydroxymethyl)butanamide]"
11,1 to 20,"Cc1nn2ccc(OCc3ccccn3)cc2c1C(=O)NCC(C)(C)CN(C)C [Cpd 045, N-[3-(dimethylamino)-2,2-dimethylpropyl]-2-methyl-5-[(pyridin-2-yl)methoxy]pyrazolo[1,5-a]pyridine-3-carboxamide]"
